Laboratory results as given in ChEMBL document CHEMBL5518248, “Design, Synthesis, and Biological Evaluation of Novel Arylomycins against Multidrug-Resistant Gram-Negative Bacteria” (J Med Chem, 2024).

What was measured:
Format in all cases: functional
Settings in all cases: time 18-20 hrs
[1] = system: Escherichia coli; experiment: Antibacterial activity against Escherichia coli ATCC 35218 assessed as inhibition of bacterial growth measured after 18 to 20 hrs by broth microdilution method
[2] = system: Escherichia coli; experiment: Antibacterial activity against Escherichia coli 14-2 assessed as inhibition of bacterial growth measured after 18 to 20 hrs by broth microdilution method
[3] = system: Escherichia coli; experiment: Antibacterial activity against Escherichia coli 14-4 assessed as inhibition of bacterial growth measured after 18 to 20 hrs by broth microdilution method
[4] = system: Klebsiella pneumoniae; experiment: Antibacterial activity against Klebsiella pneumoniae 15-1 assessed as inhibition of bacterial growth measured after 18 to 20 hrs by broth microdilution method
[5] = system: Klebsiella pneumoniae; experiment: Antibacterial activity against Klebsiella pneumoniae 15-4 assessed as inhibition of bacterial growth measured after 18 to 20 hrs by broth microdilution method
[6] = system: Klebsiella pneumoniae; experiment: Antibacterial activity against Klebsiella pneumoniae 15-5 assessed as inhibition of bacterial growth measured after 18 to 20 hrs by broth microdilution method
[7] = system: Acinetobacter baumannii; experiment: Antibacterial activity against Acinetobacter baumannii 17-2 assessed as inhibition of bacterial growth measured after 18 to 20 hrs by broth microdilution method
[8] = system: Acinetobacter baumannii; experiment: Antibacterial activity against Acinetobacter baumannii 17-8 assessed as inhibition of bacterial growth measured after 18 to 20 hrs by broth microdilution method
[9] = system: Pseudomonas aeruginosa; experiment: Antibacterial activity against Pseudomonas aeruginosa 17-1 assessed as inhibition of bacterial growth measured after 18 to 20 hrs by broth microdilution method
[10] = system: Pseudomonas aeruginosa; experiment: Antibacterial activity against Pseudomonas aeruginosa 19-5 assessed as inhibition of bacterial growth measured after 18 to 20 hrs by broth microdilution method

MIC [1] [µg/mL]	MIC [2] [µg/mL]	MIC [3] [µg/mL]	MIC [4] [µg/mL]	MIC [5] [µg/mL]	MIC [6] [µg/mL]	MIC [7] [µg/mL]	MIC [8] [µg/mL]	MIC [9] [µg/mL]	MIC [10] [µg/mL]	Structure (SMILES)
≤ 0.03	≤ 0.03	≤ 0.03	0.25	0.25	0.125	0.5	0.5	4	4	Cc1nc(-c2ccc([C@@H](C)SSC(C)(C)C)cc2)ncc1C(=O)N[C@@H](CCN)C(=O)N(C)[C@@H]1C(=O)N[C@@H](C)C(=O)N[C@H](C(=O)NCC#N)Cc2ccc(OCCN)c(c2)-c2cc1ccc2OCCN.O=C(O)C(F)(F)F.O=C(O)C(F)(F)F.O=C(O)C(F)(F)F.O=C(O)C(F)(F)F
0.25	0.5	0.5	1	2	1	8	2	> 64	> 64	COCCSSCc1ccc(-c2ncc(C(=O)N[C@@H](CCN)C(=O)N(C)[C@@H]3C(=O)N[C@@H](C)C(=O)N[C@H](C(=O)NCC#N)Cc4ccc(OCCN)c(c4)-c4cc3ccc4OCCN)c(C)n2)cc1.O=C(O)C(F)(F)F.O=C(O)C(F)(F)F.O=C(O)C(F)(F)F.O=C(O)C(F)(F)F
≤ 0.03	0.25	0.125	0.25	0.5	0.125	1	1	8	8	C[C@@H]1NC(=O)[C@@H](N(C)C(=O)[C@H](CCN)NC(=O)c2cnc(-c3ccc(CSSC(C)(C)C)cc3)cc2Cl)c2ccc(OCCN)c(c2)-c2cc(ccc2OCCN)C[C@@H](C(=O)NCC#N)NC1=O.O=C(O)C(F)(F)F.O=C(O)C(F)(F)F.O=C(O)C(F)(F)F.O=C(O)C(F)(F)F
0.5	0.5	0.25	0.5	0.5	0.5	1	1	4	2	Cc1nc(-c2ccc(CCCSSC(C)(C)C)cc2)ncc1C(=O)N[C@@H](CCN)C(=O)N(C)[C@@H]1C(=O)N[C@@H](C)C(=O)N[C@H](C(=O)NCC#N)Cc2ccc(OCCN)c(c2)-c2cc1ccc2OCCN.O=C(O)C(F)(F)F.O=C(O)C(F)(F)F.O=C(O)C(F)(F)F.O=C(O)C(F)(F)F
≤ 0.03	≤ 0.03	≤ 0.03	0.125	0.125	0.125	0.25	0.25	4	1	Cc1nc(-c2ccc([C@H](C)SSC(C)(C)C)cc2)ncc1C(=O)N[C@@H](CCN)C(=O)N(C)[C@@H]1C(=O)N[C@@H](C)C(=O)N[C@H](C(=O)NCC#N)Cc2ccc(OCCN)c(c2)-c2cc1ccc2OCCN.O=C(O)C(F)(F)F.O=C(O)C(F)(F)F.O=C(O)C(F)(F)F.O=C(O)C(F)(F)F
2	1	1	2	2	2	2	2	4	4	CCCCCCCSSCc1ccc(-c2ncc(C(=O)N[C@@H](CCN)C(=O)N(C)[C@@H]3C(=O)N[C@@H](C)C(=O)N[C@H](C(=O)NCC#N)Cc4ccc(OCCN)c(c4)-c4cc3ccc4OCCN)c(C)n2)cc1.O=C(O)C(F)(F)F.O=C(O)C(F)(F)F.O=C(O)C(F)(F)F.O=C(O)C(F)(F)F
≤ 0.03	0.06	0.125	0.25	0.25	0.125	0.5	0.25	2	4	CCCCSSc1ccc(-c2ncc(C(=O)N[C@@H](CCN)C(=O)N(C)[C@@H]3C(=O)N[C@@H](C)C(=O)N[C@H](C(=O)NCC#N)Cc4ccc(OCCN)c(c4)-c4cc3ccc4OCCN)c(C)n2)cc1.O=C(O)C(F)(F)F.O=C(O)C(F)(F)F.O=C(O)C(F)(F)F.O=C(O)C(F)(F)F

More lines, now with the values behind:

Structure (SMILES)	MIC [1] [µg/mL]	MIC [2] [µg/mL]	MIC [3] [µg/mL]	MIC [4] [µg/mL]	MIC [5] [µg/mL]	MIC [6] [µg/mL]	MIC [7] [µg/mL]	MIC [8] [µg/mL]	MIC [9] [µg/mL]	MIC [10] [µg/mL]
Cc1nc(-c2ccc(C(C)(C)C)cc2)ncc1C(=O)N[C@@H](CCN)C(=O)N(C)[C@@H]1C(=O)N[C@@H](C)C(=O)N[C@H](C(=O)OCC#N)Cc2ccc(OCCN)c(c2)-c2cc1ccc2OCCN.O=C(O)C(F)(F)F.O=C(O)C(F)(F)F.O=C(O)C(F)(F)F.O=C(O)C(F)(F)F	0.06	0.125	0.25	0.125	0.25	0.25	8	4	> 64	> 64
Cc1nc(-c2ccc(C(C)(C)C)cc2)ncc1C(=O)N[C@@H](CCN)C(=O)N(C)[C@@H]1C(=O)N[C@@H](C)C(=O)N[C@H](NC(=O)NCC#N)Cc2ccc(OCCN)c(c2)-c2cc1ccc2OCCN.O=C(O)C(F)(F)F.O=C(O)C(F)(F)F.O=C(O)C(F)(F)F.O=C(O)C(F)(F)F	32	64	64	> 64	> 64	> 64	> 64	> 64	> 64	> 64
Cc1nc(-c2ccc(C(C)(C)C)cc2)ncc1C(=O)N[C@@H](CCN)C(=O)N(C)[C@@H]1C(=O)N[C@@H](C)C(=O)N[C@H](C(=O)NCC=O)Cc2ccc(OCCN)c(c2)-c2cc1ccc2OCCN.Cl.Cl.Cl.Cl	≤ 0.03	≤ 0.03	0.06	≤ 0.03	0.125	≤ 0.03	4	2	> 64	64
Cc1nc(-c2ccc(C(C)(C)C)cc2)ncc1NC(=O)N[C@@H](CCN)C(=O)N(C)[C@@H]1C(=O)N[C@@H](C)C(=O)N[C@H](C(=O)NCC#N)Cc2ccc(OCCN)c(c2)-c2cc1ccc2OCCN.O=C(O)C(F)(F)F.O=C(O)C(F)(F)F.O=C(O)C(F)(F)F.O=C(O)C(F)(F)F	4	16	8	16	32	16	32	8	> 64	> 64
CSSC(C)(C)c1ccc(-c2ncc(C(=O)N[C@@H](CCN)C(=O)N(C)[C@@H]3C(=O)N[C@@H](C)C(=O)N[C@H](C(=O)O)Cc4ccc(OCCN)c(c4)-c4cc3ccc4OCCN)c(C)n2)cc1.O=C(O)C(F)(F)F.O=C(O)C(F)(F)F.O=C(O)C(F)(F)F.O=C(O)C(F)(F)F	≤ 0.03	≤ 0.03	0.06	≤ 0.03	0.25	≤ 0.03	4	2	> 64	> 64
Cc1nc(-c2ccc(C(C)(C)C)cc2)ncc1C(=O)N[C@@H](CCN)C(=O)N(C)[C@@H]1C(=O)N[C@@H](C)C(=O)N[C@H](C(=O)NCP(=O)(O)O)Cc2ccc(OCCN)c(c2)-c2cc1ccc2OCCN.Cl.Cl.Cl.Cl	0.25	1	0.25	0.5	0.5	0.25	8	4	64	64
Cc1nc(-c2ccc(C(C)(C)C)cc2)ncc1C(=O)N[C@@H](CCN)C(=O)N(C)[C@H]1Cc2ccc(OCCN)c(c2)-c2cc(ccc2OCCN)C[C@@H](C(=O)NCC#N)NC(=O)[C@H](C)NC1=O.Cl.Cl.Cl.Cl	61	64	64	> 64	> 64	> 64	> 64	> 64	> 64	> 64
